Literature values as cited in US20040018533A1, “Diagnosing predisposition to fat deposition and therapeutic methods for reducing fat deposition and treatment of associated conditions” (priority 2002, published 2004).

Target: P2X4 (Homo sapiens, UniProt Q99571)
Settings: Xenopus oocytes

Sequence of P2X4 (Q99571 whole entry, species assumed): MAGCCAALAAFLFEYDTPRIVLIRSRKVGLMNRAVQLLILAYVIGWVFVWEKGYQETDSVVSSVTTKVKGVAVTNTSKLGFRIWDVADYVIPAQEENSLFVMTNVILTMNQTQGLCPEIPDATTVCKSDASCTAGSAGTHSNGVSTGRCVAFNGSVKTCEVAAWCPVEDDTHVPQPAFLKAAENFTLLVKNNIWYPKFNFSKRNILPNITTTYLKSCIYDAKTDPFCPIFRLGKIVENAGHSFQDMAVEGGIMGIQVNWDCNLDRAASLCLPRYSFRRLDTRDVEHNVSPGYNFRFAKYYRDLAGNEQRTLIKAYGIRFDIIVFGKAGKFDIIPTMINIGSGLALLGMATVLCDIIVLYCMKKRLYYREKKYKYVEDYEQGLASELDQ

CCO [ethanol]
effect on P2X4 function: inhibits P2X4 function
